Measurements taken from patent EP3868759A1, “2,3,5-SUBSTITUTED PYRROLO[2,3-B]PYRIDINES AS ERBB MODULATORS USEFUL FOR TREATING CANCER” (PearlRiver Bio GmbH, priority 2020, dated 2021).

How the values were obtained:
Cuto-17 = assay: CellTiter-Glo cell viability, Cuto-17; format: cell-based; conditions: CUTO17, 72 h, read-out: Cuto-17 CTG IC50
Protocol: (§1) The CellTiter-Glo Luminescent Cell Viability Assay (Promega) is a homogeneous method of determining the number of viable cells in culture. It is based on quantification of ATP, indicating the presence of metabolically active cells. Cells are seeded on day 1 at cell numbers that assure assay linearity and optimal signal intensity. After incubation for 24h in humidified chambers at 37°C and 5% CO2, compounds in DMSO are added at different concentrations. Cells are further incubated for 72 h at 37°C and 5% CO2. Cells treated with the compound vehicle DMSO are used as positive controls and cells treated with 10 µM Staurosporine serve as negative controls. At day 5 the CellTiter Glo Reagent is prepared according to the instructions of the kit (Promega Inc.): Reagent is mixed 1:1 with cell culture medium. Thereon, mixture and assay plates are equilibrated at room temperature for 20 min. Equal volumes of the reagent-medium-mixture is added to the volume of culture medium present in each well. The plates are mixed at ∼200 rpm for 2 minutes on an orbital shaker. The microplates are then incubated at room temperature for 10 minutes for stabilization of the luminescent signal. Following incubation the luminescence is recorded on a Victor microplate reader (Perkin Elmer) using a 200 ms integration time. The data is then analyzed with Excel using the XLFIT Plugin (dose response Fit 205) for IC50-determination. As quality control the Z'-factor is calculated from 16 positive and negative control values. Only assay results showing a Z'-factor ≥ 0.5 are used for further analysis.

EGFR wt = EGFR wt (Homo sapiens, UniProt P00533); assay: Lance assay, EGFR wt; conditions: biochemical Lance assay
EGFR T790M L858R = EGFR T790M L858R (Homo sapiens, UniProt P00533, L858R/T790M); assay: Lance assay, EGFR T790M L858R; conditions: biochemical Lance assay
Chain of EGFR T790M L858R (P00533 25-1210 T790M/L858R): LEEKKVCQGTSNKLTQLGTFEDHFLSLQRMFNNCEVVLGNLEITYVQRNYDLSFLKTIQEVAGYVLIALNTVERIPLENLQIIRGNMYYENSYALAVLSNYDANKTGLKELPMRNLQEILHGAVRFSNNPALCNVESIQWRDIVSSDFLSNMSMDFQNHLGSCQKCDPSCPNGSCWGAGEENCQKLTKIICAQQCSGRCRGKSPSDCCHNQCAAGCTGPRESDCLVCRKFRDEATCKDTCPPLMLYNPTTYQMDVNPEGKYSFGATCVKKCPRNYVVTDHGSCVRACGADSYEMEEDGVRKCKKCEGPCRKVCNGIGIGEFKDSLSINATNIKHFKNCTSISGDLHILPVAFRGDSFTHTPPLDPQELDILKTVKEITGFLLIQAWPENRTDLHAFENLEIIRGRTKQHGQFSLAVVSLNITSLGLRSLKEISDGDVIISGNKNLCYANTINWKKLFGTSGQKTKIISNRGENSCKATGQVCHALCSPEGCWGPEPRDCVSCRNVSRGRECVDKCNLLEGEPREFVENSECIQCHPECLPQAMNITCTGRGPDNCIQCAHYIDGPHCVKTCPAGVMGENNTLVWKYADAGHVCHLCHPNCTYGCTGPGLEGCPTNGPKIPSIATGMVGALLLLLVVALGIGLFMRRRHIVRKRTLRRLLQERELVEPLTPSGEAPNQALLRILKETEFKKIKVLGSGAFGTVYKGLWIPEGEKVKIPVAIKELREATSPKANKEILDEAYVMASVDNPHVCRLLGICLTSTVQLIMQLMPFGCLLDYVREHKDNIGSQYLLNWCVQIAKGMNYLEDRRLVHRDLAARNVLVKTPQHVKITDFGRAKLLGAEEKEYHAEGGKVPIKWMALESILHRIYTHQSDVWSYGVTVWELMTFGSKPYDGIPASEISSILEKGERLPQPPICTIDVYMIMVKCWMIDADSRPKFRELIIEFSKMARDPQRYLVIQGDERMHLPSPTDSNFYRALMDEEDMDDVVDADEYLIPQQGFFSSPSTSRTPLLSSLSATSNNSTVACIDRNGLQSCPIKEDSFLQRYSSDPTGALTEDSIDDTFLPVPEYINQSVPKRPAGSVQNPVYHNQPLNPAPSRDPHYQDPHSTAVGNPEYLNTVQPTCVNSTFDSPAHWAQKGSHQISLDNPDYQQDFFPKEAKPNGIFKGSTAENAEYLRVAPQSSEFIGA

H1975 = assay: CellTiter-Glo cell viability, H1975; format: cell-based; conditions: Homo sapiens, NCI-H1975, 72 h, read-out: H1975 CTG IC50
Protocol: as §1

[1] = test system: EGFR Exon 20 InsNPH Ba/F3; assay: CellTiter-Glo cell viability, EGFR Exon 20 InsNPH Ba/F3; format: cell-based; conditions: Mus musculus, BaF3, 72 h, read-out: EGFR Exon 20 InsNPH Ba/F3 CTG IC50
Protocol: as §1

[2] = test system: Her2 Exon 20 InsYVMA Ba/F3; assay: CellTiter-Glo cell viability, Her2 Exon 20 InsYVMA Ba/F3; format: cell-based; conditions: Mus musculus, BaF3, 72 h, read-out: Her2 Exon 20 InsYVMA Ba/F3 CTG IC50
Protocol: as §1

HER2 INS YVMA = molecular target: T1, HER2 INS YVMA (Homo sapiens, UniProt P04626, INS775YVMA); assay: Lance Kinase Activity Assay, Her2 Exon 20 InsYVMA; conditions: biochemical Lance assay
T1 construct: purchased DPF
T1 sequence (P04626 with tags, fused parts or gaps INS775YVMA): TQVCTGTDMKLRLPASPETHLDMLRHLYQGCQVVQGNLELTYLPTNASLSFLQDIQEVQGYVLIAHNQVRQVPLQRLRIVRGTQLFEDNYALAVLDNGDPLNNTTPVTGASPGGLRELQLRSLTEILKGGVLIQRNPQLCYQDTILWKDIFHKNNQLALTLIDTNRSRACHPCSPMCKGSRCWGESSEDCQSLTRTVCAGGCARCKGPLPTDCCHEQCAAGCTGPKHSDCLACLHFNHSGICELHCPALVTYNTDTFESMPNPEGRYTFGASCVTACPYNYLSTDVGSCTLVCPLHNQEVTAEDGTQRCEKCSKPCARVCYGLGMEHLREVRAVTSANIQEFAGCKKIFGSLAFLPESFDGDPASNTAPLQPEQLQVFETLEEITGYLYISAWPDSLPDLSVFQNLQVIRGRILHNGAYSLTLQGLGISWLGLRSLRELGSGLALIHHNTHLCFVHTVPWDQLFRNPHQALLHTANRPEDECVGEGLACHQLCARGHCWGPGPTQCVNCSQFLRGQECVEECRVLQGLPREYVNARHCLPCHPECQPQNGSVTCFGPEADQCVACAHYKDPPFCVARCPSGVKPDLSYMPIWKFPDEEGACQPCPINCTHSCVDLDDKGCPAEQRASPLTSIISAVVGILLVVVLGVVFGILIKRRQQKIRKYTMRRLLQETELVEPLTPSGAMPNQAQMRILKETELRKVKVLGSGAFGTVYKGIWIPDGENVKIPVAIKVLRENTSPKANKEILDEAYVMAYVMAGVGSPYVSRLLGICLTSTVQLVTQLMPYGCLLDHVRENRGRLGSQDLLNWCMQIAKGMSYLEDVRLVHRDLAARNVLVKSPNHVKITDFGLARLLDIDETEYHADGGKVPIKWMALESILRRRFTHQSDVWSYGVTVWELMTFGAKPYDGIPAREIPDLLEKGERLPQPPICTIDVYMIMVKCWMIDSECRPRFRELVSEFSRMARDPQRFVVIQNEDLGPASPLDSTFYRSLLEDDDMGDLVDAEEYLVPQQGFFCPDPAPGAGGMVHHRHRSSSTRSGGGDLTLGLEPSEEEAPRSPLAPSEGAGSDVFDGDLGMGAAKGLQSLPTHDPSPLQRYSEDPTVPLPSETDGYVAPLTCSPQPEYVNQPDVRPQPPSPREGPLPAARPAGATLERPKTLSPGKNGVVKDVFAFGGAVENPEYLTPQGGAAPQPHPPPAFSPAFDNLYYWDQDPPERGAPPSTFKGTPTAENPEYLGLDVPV
Protocol: This protocol describes how the Lance Kinase Activity Assay was performed to determine IC50 values of compounds of general formula (I) against HER2 INS YVMA. The principle behind this enzymatic assay is based upon the phosphorylation of the Ulight-peptide substrate. It is detected by using a specific EU-labeled anti-phospho peptide antibody. The binding of the Eu labeled anti-phospho peptide antibody to the phosphorylated ULight labeled peptide gives rise to a FRET-signal. Binding of an inhibitor to the kinase prevents phosphorylation of the Ulight-substrate, resulting in a loss of FRET. In table 2 is summarized the relevant information for the LANCE assay. Table 2: Reagents, stock concentrations and final assay concentrations for Her2 INS YVMA.
The compounds of general formula (I) summarized in Table 3 were serial diluted from a 10 mM DMSO stock solution 1:3 over 8 steps in a total volume of 20 µl. For every sample, 8 µl of kinase-substrate mix was transferred into a suitable assay plate (e.g. Corning #3673). Compound was added via pintool transfer (10nl/well) using a Biomek FX robot (BeckmanCoulter). Reaction was started by addition of 2µl ATP working solution and mixed using variomag teleshaker (Thermo Fischer Scientific). After 1 h incubation at room temperature the reaction was stopped with 10µl detection mix containing the Eu-labeled phosphospecific antibody and 10mM EDTA. After a second incubation period of 1 h at room temperature the FRET signal was measured at 340 nm excitation, 665 nm and 615 nm emission (for the ULight-substrate and Eu-AB, respectively) with an Envision spectrophotometer (Perkin Elmer, Waltham, MA, USA) with 50 µs delay and 300 µs integration time. IC50 values were determined from the sigmoidal dose response curves with the software Quattro Workflow (Quattro GmbH, Munich, Germany).

A431 = assay: CellTiter-Glo cell viability, A431; format: cell-based; conditions: Homo sapiens, A-431, 72 h, read-out: A431 CTG IC50
Protocol: as §1

EGFR vIII Ba/F3 = assay: CellTiter-Glo cell viability, EGFR vIII Ba/F3; format: cell-based; conditions: Mus musculus, BaF3, 72 h, read-out: EGFR vIII Ba/F3 CTG IC50 /
Protocol: as §1

EGFR L858R = EGFR L858R (Homo sapiens, UniProt P00533, L858R); assay: Lance assay, EGFR L858R; conditions: biochemical Lance assay
Chain of EGFR L858R (P00533 25-1210 L858R): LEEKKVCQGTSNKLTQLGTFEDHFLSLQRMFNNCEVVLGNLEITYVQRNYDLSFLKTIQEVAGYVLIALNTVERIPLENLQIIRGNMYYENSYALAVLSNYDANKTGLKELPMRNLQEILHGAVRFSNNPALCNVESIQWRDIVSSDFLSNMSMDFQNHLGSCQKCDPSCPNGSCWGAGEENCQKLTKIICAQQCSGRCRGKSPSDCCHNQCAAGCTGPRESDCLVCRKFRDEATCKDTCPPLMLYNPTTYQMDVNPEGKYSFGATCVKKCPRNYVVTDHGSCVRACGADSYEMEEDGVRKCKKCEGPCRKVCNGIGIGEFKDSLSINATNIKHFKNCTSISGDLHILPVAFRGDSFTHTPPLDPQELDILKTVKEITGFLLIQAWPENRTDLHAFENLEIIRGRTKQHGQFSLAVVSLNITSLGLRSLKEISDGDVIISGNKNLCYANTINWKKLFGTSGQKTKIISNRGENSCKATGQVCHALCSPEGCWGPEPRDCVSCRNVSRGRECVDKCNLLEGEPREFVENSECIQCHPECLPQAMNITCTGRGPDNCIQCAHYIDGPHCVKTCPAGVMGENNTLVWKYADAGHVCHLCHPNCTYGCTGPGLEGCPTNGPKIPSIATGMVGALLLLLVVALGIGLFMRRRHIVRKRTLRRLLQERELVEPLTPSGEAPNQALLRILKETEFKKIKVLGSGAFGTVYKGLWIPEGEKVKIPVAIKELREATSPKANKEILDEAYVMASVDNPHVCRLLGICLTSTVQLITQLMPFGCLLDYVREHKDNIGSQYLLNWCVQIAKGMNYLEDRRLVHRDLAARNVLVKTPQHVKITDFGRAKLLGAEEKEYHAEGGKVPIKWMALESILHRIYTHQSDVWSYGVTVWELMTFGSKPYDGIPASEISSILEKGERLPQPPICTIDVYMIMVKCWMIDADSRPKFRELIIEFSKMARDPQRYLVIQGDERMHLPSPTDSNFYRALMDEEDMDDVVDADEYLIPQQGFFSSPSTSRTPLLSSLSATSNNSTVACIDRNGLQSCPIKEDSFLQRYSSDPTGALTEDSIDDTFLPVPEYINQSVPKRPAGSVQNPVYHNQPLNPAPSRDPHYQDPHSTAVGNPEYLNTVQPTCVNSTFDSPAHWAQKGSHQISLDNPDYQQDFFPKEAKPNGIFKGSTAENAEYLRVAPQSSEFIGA

EGFR L858R T790M Ba/F3 = assay: CellTiter-Glo cell viability, EGFR L858R T790M Ba/F3; format: cell-based; conditions: Mus musculus, BaF3, 72 h, read-out: EGFR L858R T790M Ba/F3 CTG IC50 /
Protocol: as §1

EGFR L858R Ba/F3 = assay: CellTiter-Glo cell viability, EGFR L858R Ba/F3; format: cell-based; conditions: Mus musculus, BaF3, 72 h, read-out: EGFR L858R Ba/F3 CTG IC50 /
Protocol: as §1

EGFR (del746-750) = EGFR (del746-750) (Homo sapiens, UniProt P00533, DEL746-750); assay: Lance assay, EGFR (del746-750); conditions: biochemical Lance assay
Chain of EGFR (del746-750) (P00533 with tags, fused parts or gaps DEL746-750): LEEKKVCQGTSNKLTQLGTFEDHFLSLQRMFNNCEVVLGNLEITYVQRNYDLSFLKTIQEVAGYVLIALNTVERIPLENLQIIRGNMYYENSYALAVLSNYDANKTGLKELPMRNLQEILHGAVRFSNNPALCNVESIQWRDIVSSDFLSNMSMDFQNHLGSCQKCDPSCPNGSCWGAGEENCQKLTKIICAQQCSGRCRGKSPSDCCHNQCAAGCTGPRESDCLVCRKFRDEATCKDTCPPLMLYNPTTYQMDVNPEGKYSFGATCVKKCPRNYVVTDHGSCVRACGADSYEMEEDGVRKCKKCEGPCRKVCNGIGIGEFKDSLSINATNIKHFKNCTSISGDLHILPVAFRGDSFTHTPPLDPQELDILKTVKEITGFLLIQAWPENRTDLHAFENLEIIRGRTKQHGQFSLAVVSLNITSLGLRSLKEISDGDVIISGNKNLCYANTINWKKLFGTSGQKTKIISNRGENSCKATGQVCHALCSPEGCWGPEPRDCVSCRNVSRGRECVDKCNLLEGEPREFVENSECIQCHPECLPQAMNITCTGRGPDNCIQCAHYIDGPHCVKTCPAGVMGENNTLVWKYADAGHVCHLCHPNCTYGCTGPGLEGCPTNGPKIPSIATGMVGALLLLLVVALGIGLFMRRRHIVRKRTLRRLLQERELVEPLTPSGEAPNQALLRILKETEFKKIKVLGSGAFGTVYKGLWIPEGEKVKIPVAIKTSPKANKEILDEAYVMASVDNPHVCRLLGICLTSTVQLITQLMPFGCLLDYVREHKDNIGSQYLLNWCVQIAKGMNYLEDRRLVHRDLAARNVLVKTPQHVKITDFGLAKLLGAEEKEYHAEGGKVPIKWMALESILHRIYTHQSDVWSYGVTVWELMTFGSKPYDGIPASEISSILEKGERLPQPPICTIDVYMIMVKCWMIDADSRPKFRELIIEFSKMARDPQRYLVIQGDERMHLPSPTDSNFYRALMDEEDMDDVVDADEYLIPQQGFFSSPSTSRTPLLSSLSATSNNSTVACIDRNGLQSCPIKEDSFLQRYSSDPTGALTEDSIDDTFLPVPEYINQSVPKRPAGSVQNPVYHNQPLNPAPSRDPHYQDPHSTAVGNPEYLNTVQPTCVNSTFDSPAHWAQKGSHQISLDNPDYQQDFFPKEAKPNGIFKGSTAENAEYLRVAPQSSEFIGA

| Compound | IC50 (Cuto-17) [nM] | IC50 (EGFR wt) [nM] | IC50 (EGFR T790M L858R) [nM] | IC50 (H1975) [nM] | IC50 [1] [nM] | IC50 [2] [nM] | IC50 (HER2 INS YVMA) [nM] | IC50 (A431) [nM] | IC50 (EGFR vIII Ba/F3) [nM] | IC50 (EGFR L858R) [nM] | IC50 (EGFR L858R T790M Ba/F3) [nM] | IC50 (EGFR L858R Ba/F3) [nM] | IC50 (EGFR (del746-750)) [nM] |
| --- | --- | --- | --- | --- | --- | --- | --- | --- | --- | --- | --- | --- | --- |
| C=CC(=O)Nc1cc(-c2c(-c3cn[nH]c3)[nH]c3ncc(C(=O)OC(C)C)c(C)c23)ccc1C [Example 20, isopropyl 3-(3-acrylamido-4-methylphenyl)-4-methyl-2-(1 H-pyrazol-4-yl)-1 H-pyrrolo[2,3-b]pyridine-5-carboxylate] | 500 to 1000 | ≤ 50 | ≤ 50 | 1000 to 10000 | 100 to 500 | 500 to 1000 | 50 to 100 | 1000 to 10000 | 100 to 500 |  |  |  |  |
| C=CC(=O)Nc1cc(-c2c(-c3cnn(CC4CC4)c3)[nH]c3ncc(C(=O)OC(C)C)c(C)c23)ccc1C [Example 21, isopropyl 3-(3-acrylamido-4-methylphenyl)-2-(1-(cyclopropylmethyl)-1 H-pyrazol-4-yl)-4-methyl-1 H-pyrrolo[2,3-b]pyridine-5-carboxylate] | 100 to 500 | ≤ 50 | ≤ 50 | 100 to 500 | 50 to 100 | 100 to 500 | 50 to 100 | 1000 to 10000 | 100 to 500 |  |  |  |  |
| C=CC(=O)Nc1cc(-c2c(-c3cnn(CCO)c3)[nH]c3ncc(C(=O)OC(C)C)c(C)c23)ccc1C [Example 23, isopropyl 3-(3-acrylamido-4-methylphenyl)-2-(1-(2-hydroxyethyl)-1H-pyrazol-4-yl)-4-methyl-1 H-pyrrolo[2,3-b]pyridine-5-carboxylate] |  | ≤ 50 | 50 to 100 |  | 100 to 500 | 500 to 1000 | 100 to 500 | 1000 to 10000 | 50 to 100 | ≤ 50 | 100 to 500 | ≤ 50 | ≤ 50 |
| C=CC(=O)Nc1cc(-c2c(-c3cnn(CC(C)O)c3)[nH]c3ncc(C(=O)OC(C)C)c(C)c23)ccc1C (stereo not drawn) [Example 24, isopropyl 3-(3-acrylamido-4-methylphenyl)-2-(1-(2-hydroxypropyl)-1H-pyrazol-4-yl)-4-methyl-1 H-pyrrolo[2,3-b]pyridine-5-carboxylate] |  | ≤ 50 | 50 to 100 |  | 100 to 500 | 500 to 1000 | 100 to 500 | 1000 to 10000 | 50 to 100 | ≤ 50 | 50 to 100 | ≤ 50 | ≤ 50 |
| C=CC(=O)Nc1cc(-c2c(-c3cn(C)cn3)[nH]c3ncc(C(=O)OC(C)C)c(C)c23)ccc1C [Example 25, isopropyl 3-(3-acrylamido-4-methylphenyl)-4-methyl-2-(1-methyl-1 H-imidazol-4-yl)-1H-pyrrolo[2,3-b]pyridine-5-carboxylate] |  | ≤ 50 | 50 to 100 |  | 100 to 500 | 100 to 500 | 100 to 500 | 1000 to 10000 | 50 to 100 | ≤ 50 | 50 to 100 | ≤ 50 | ≤ 50 |
| C=CC(=O)Nc1cc(-c2c(-c3cnn(C)c3)[nH]c3ncc(-c4cnn(C)c4)cc23)ccc1C [Example 26, N-(5-(2,5-bis(1-methyl-1H-pyrazol-4-yl)-1H-pyrrolo[2,3-b]pyridin-3-yl)-2-methylphenyl)acrylamide 2,2,2-trifluoroacetate] |  | ≤ 50 | ≤ 50 |  | 50 to 100 | 100 to 500 | 100 to 500 | 1000 to 10000 | ≤ 50 | ≤ 50 | 100 to 500 | ≤ 50 | ≤ 50 |
| C=CC(=O)Nc1cc(-c2c(-c3cnn(C)c3)[nH]c3ncc(-c4ccnn4C)cc23)ccc1C [Example 27, N-(2-methyl-5-(2-(1-methyl-1H-pyrazol-4-yl)-5-(-methyl-1 H-pyrazol-5-yl)-1 H-pyrrolo[2,3-b]pyridin-3-yl)phenyl)acrylamide] |  | ≤ 50 | ≤ 50 |  | 100 to 500 | 500 to 1000 | 100 to 500 | 1000 to 10000 | ≤ 50 | ≤ 50 | 100 to 500 | ≤ 50 | ≤ 50 |
| C=CC(=O)Nc1cc(-c2c(-c3cnn(C)c3)[nH]c3ncc(-c4cnn(CC)c4)cc23)ccc1C [Example 28, N-(5-(5-(1-ethyl-1H-pyrazol-4-yl)-2-(1-methyl-1 H-pyrazol-4-yl)-1 H-pyrrolo[2,3-b]pyridin-3-yl)-2-methylphenyl)acrylamide] |  | ≤ 50 | ≤ 50 |  | ≤ 50 | 100 to 500 | 50 to 100 | 1000 to 10000 | ≤ 50 | ≤ 50 | 50 to 100 | ≤ 50 | ≤ 50 |
| C=CC(=O)Nc1cc(-c2c(-c3cnn(C)c3)[nH]c3ncc(-c4cnn(C)c4C)cc23)ccc1C [Example 29, N-(5-(5-(1,5-dimethyl-1H-pyrazol-4-yl)-2-(1-methyl-1 H-pyrazol-4-yl)-1 H-pyrrolo[2,3-b]pyridin-3-yl)-2-methylphenyl)acrylamide] |  | ≤ 50 | ≤ 50 |  | ≤ 50 | 100 to 500 | ≤ 50 | 500 to 1000 | ≤ 50 | ≤ 50 | ≤ 50 | ≤ 50 | ≤ 50 |
| C=CC(=O)Nc1cc(-c2c(-c3cnn(C)c3)[nH]c3ncc(-c4cn(C)nc4C)cc23)ccc1C [Example 30, N-(5-(5-(1,3-dimethyl-1H-pyrazol-4-yl)-2-(1-methyl-1 H-pyrazol-4-yl)-1 H-pyrrolo[2,3-b]pyridin-3-yl)-2-methylphenyl)acrylamide] |  | ≤ 50 | ≤ 50 |  | 100 to 500 | 500 to 1000 | 100 to 500 | 1000 to 10000 | 100 to 500 | ≤ 50 | 100 to 500 | ≤ 50 | ≤ 50 |
| C=CC(=O)Nc1cc(-c2c(-c3cnn(C)c3)[nH]c3ncc(-c4cnn(C5CC5)c4)cc23)ccc1C [Example 31, N-(5-(5-(1-cyclopropyl-1H-pyrazol-4-yl)-2-(1-methyl-1 H-pyrazol-4-yl)-1 H-pyrrolo[2,3-b]pyridin-3-yl)-2-methylphenyl)acrylamide] |  | ≤ 50 | ≤ 50 |  | 50 to 100 | 100 to 500 | 50 to 100 | 1000 to 10000 | ≤ 50 | ≤ 50 | ≤ 50 | ≤ 50 | ≤ 50 |
